From US6693216B2, “Calcium double salts” (Nutrinova Nutrition Specialties & Food Ingredients GmbH, priority 2000, dated 2004)
Read-outs that look alike come from different tables or passages of the source.

Tests used:
[1] = test system: Yeasts; details: Part II, 1 g/l in apple juice pH 4.5, 25° C.
[2] = test system: Bacilli; details: Part II, 1 g/l in apple juice pH 4.5, 25° C.
[3] = test system: Molds I; details: Part II, 1 g/l in apple juice pH 4.5, 25° C.
[4] = test system: Gram-positive bacteria; details: Part II, 1 g/l in apple juice pH 4.5, 25° C.
[5] = test system: all microorganisms used
[6] = test system: Gram-negative bacteria; details: Part II; for Number of surviving microorganisms per g of contaminated sample, Gram-negative bacteria: 1 g/l in apple juice pH 4.5, 25° C.
[7] = test system: Acetic acid bacteria; details: Part II, 1 g/l in apple juice pH 4.5, 25° C.
[8] = test system: Molds II; details: Part II, 1 g/l in apple juice pH 4.5, 25° C.
[9] = sealed
Description: Salts prepared as in example 1 were dried, stored under the specified conditions without the addition of other substances and checked at regular intervals visually for discoloration: […]

[10] = test system: Thermophilic bacilli; details: Part II, 1 g/l in apple juice pH 4.5, 25° C.
[11] = test system: Lactic acid bacteria; details: Part II, 1 g/l in apple juice pH 4.5, 25° C.
[12] = test system: Clostridia; details: Part II, 1 g/l in apple juice pH 4.5, 25° C.
[13] = 1 day after inoculation (2.7 × 10^4)
[14] = 3 days after inoculation (2.7 × 10^4)
[15] = 7 days after inoculation (2.7 × 10^4)
[16] = 14 days after inoculation (2.7 × 10^4)

## C/C=C/C=C/C(=O)[O-].CC(=O)[O-].[Ca+2] [calcium acetate sorbate]
[1]; 1 day after inoculation (2.6 × 10^4)
  Number of surviving microorganisms per g of contaminated sample, Yeasts: 1.3 × 10^4 CFU/g
[1]; 3 days after inoculation (2.6 × 10^4)
  Number of surviving microorganisms per g of contaminated sample, Yeasts: 3.4 × 10^3 CFU/g
[1]; 7 days after inoculation (2.6 × 10^4)
  Number of surviving microorganisms per g of contaminated sample, Yeasts: <100 CFU/g
[1]; 14 days after inoculation (2.6 × 10^4)
  Number of surviving microorganisms per g of contaminated sample, Yeasts: <10 CFU/g
[2]; 1 day after inoculation (3.3 × 10^4)
  Number of surviving microorganisms per g of contaminated sample, Bacilli: 2.5 × 10^3 CFU/g
[2]; 3 days after inoculation (3.3 × 10^4)
  Number of surviving microorganisms per g of contaminated sample, Bacilli: 1.7 × 10^3 CFU/g
[2]; 7 days after inoculation (3.3 × 10^4)
  Number of surviving microorganisms per g of contaminated sample, Bacilli: 1.7 × 10^3 CFU/g
[2]; 14 days after inoculation (3.3 × 10^4)
  Number of surviving microorganisms per g of contaminated sample, Bacilli: 1.4 × 10^3 CFU/g
[3]; 1 day after inoculation (2.2 × 10^4)
  Number of surviving microorganisms per g of contaminated sample, Molds I: 3.7 × 10^3 CFU/g
[3]; 3 days after inoculation (2.2 × 10^4)
  Number of surviving microorganisms per g of contaminated sample, Molds I: 5.0 × 10^2 CFU/g
[3]; 7 days after inoculation (2.2 × 10^4)
  Number of surviving microorganisms per g of contaminated sample, Molds I: 1.0 × 10^2 CFU/g
[3]; 14 days after inoculation (2.2 × 10^4)
  Number of surviving microorganisms per g of contaminated sample, Molds I: <100 CFU/g
[4]; 1 day after inoculation (2.1 × 10^4)
  Number of surviving microorganisms per g of contaminated sample, Gram-positive bacteria: 2.5 × 10^4 CFU/g
[4]; 3 days after inoculation (2.1 × 10^4)
  Number of surviving microorganisms per g of contaminated sample, Gram-positive bacteria: 6.2 × 10^3 CFU/g
[4]; 7 days after inoculation (2.1 × 10^4)
  Number of surviving microorganisms per g of contaminated sample, Gram-positive bacteria: 2.7 × 10^3 CFU/g
[4]; 14 days after inoculation (2.1 × 10^4)
  Number of surviving microorganisms per g of contaminated sample, Gram-positive bacteria: <10 CFU/g
[5]; 1 g/l in apple juice pH 4.5, up to 14 days
  Preservative action against the microorganisms used: acts well and persistently against all microorganisms used except for acetic acid bacteria and bacilli
[5]; same concentration, 1 g/l in apple juice pH 4.5
  Preservative action compared with the single salts: acts surprisingly better than calcium acetate (in particular against lactic acid bacteria, yeasts, molds and Gram-positive bacteria) or calcium sorbate (in particular against lactic acid bacteria) used alone
[6]; 1 g/l in apple juice pH 4.5
  Growth of Gram-negative bacteria: substantially inhibited
[6]; [13]
  Number of surviving microorganisms per g of contaminated sample, Gram-negative bacteria: 9.0 × 10^3 CFU/g
[6]; [14]
  Number of surviving microorganisms per g of contaminated sample, Gram-negative bacteria: 3.2 × 10^3 CFU/g
[6]; [15]
  Number of surviving microorganisms per g of contaminated sample, Gram-negative bacteria: 1.5 × 10^3 CFU/g
[6]; [16]
  Number of surviving microorganisms per g of contaminated sample, Gram-negative bacteria: 4.2 × 10^4 CFU/g
[7]; 1 day after inoculation (2.8 × 10^4)
  Number of surviving microorganisms per g of contaminated sample, Acetic acid bacteria: 2.5 × 10^4 CFU/g
[7]; 3 days after inoculation (2.8 × 10^4)
  Number of surviving microorganisms per g of contaminated sample, Acetic acid bacteria: 6.5 × 10^3 CFU/g
[7]; 7 days after inoculation (2.8 × 10^4)
  Number of surviving microorganisms per g of contaminated sample, Acetic acid bacteria: 1.7 × 10^5 CFU/g
[7]; 14 days after inoculation (2.8 × 10^4)
  Number of surviving microorganisms per g of contaminated sample, Acetic acid bacteria: 1.6 × 10^5 CFU/g
[8]; 1 day after inoculation (2.5 × 10^4)
  Number of surviving microorganisms per g of contaminated sample, Molds II: 4.4 × 10^3 CFU/g
[8]; 3 days after inoculation (2.5 × 10^4)
  Number of surviving microorganisms per g of contaminated sample, Molds II: <100 CFU/g
[8]; 7 days after inoculation (2.5 × 10^4)
  Number of surviving microorganisms per g of contaminated sample, Molds II: <10 CFU/g
[8]; 14 days after inoculation (2.5 × 10^4)
  Number of surviving microorganisms per g of contaminated sample, Molds II: <10 CFU/g
[9]; dark at 7° C.
  Time after yellow-brown discoloration of a 1% strength aqueous solution: >12 months />12 months
  Time after yellow-brown discoloration of the powder: 12 months />12 months
[9]; dark at 25° C.
  Time after yellow-brown discoloration of a 1% strength aqueous solution: >12 months />12 months
  Time after yellow-brown discoloration of the powder: 12 months />12 months
[9]; under sunlight at 7° C.
  Time after yellow-brown discoloration of a 1% strength aqueous solution: 12 months />12 months
  Time after yellow-brown discoloration of the powder: 12 months />12 months
[9]; under sunlight at 25° C.
  Time after yellow-brown discoloration of a 1% strength aqueous solution: 12 months />12 months
  Time after yellow-brown discoloration of the powder: 12 months />12 months
[10]; 1 day after inoculation (1.3 × 10^4)
  Number of surviving microorganisms per g of contaminated sample, Thermophilic bacilli: 2.3 × 10^3 CFU/g
[10]; 3 days after inoculation (1.3 × 10^4)
  Number of surviving microorganisms per g of contaminated sample, Thermophilic bacilli: 1.1 × 10^3 CFU/g
[10]; 7 days after inoculation (1.3 × 10^4)
  Number of surviving microorganisms per g of contaminated sample, Thermophilic bacilli: 1.0 × 10^2 CFU/g
[10]; 14 days after inoculation (1.3 × 10^4)
  Number of surviving microorganisms per g of contaminated sample, Thermophilic bacilli: <10 CFU/g
[11]; [13]
  Number of surviving microorganisms per g of contaminated sample, Lactic acid bacteria: 5.5 × 10^3 CFU/g
[11]; [14]
  Number of surviving microorganisms per g of contaminated sample, Lactic acid bacteria: <100 CFU/g
[11]; [15]
  Number of surviving microorganisms per g of contaminated sample, Lactic acid bacteria: <10 CFU/g
[11]; [16]
  Number of surviving microorganisms per g of contaminated sample, Lactic acid bacteria: <10 CFU/g
[12]; 1 day after inoculation (2.9 × 10^4)
  Number of surviving microorganisms per g of contaminated sample, Clostridia: 7.0 × 10^2 CFU/g
[12]; 3 days after inoculation (2.9 × 10^4)
  Number of surviving microorganisms per g of contaminated sample, Clostridia: <100 CFU/g
[12]; 7 days after inoculation (2.9 × 10^4)
  Number of surviving microorganisms per g of contaminated sample, Clostridia: <10 CFU/g
[12]; 14 days after inoculation (2.9 × 10^4)
  Number of surviving microorganisms per g of contaminated sample, Clostridia: <10 CFU/g
